In PubChem BioAssay (NCI):
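Five concentrations, 48 hours, 96-well plates. TGI marks complete inhibition of growth.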

Experiments:
Assay in all cases: inhibition of tumour cell growth, NCI panel, 48 h
IGROV1 ovarian = system: IGROV1 ovarian
HS 578T breast = system: HS 578T breast
T-47D breast = system: T-47D breast
SK-MEL-2 melanoma = system: SK-MEL-2 melanoma
PC-3 prostate = system: PC-3 prostate
SR leukemia = system: SR leukemia
HCC-2998 colon = system: HCC-2998 colon
MOLT-4 leukemia = system: MOLT-4 leukemia
SNB-19 CNS = system: SNB-19 CNS
SW-620 colon = system: SW-620 colon

Row | Structure (SMILES) | TGI (IGROV1 ovarian) [µM] | TGI (HS 578T breast) [µM] | TGI (T-47D breast) [µM] | TGI (SK-MEL-2 melanoma) [µM] | TGI (PC-3 prostate) [µM] | TGI (SR leukemia) [µM] | TGI (HCC-2998 colon) [µM] | TGI (MOLT-4 leukemia) [µM] | TGI (SNB-19 CNS) [µM] | TGI (SW-620 colon) [µM]
1 | O=C1C(=Cc2ccccc2[N+](=O)[O-])N=C(c2ccccc2)N1n1c(-c2ccccc2)nc2ccccc2c1=O | > 100 | 86 | 62.6 | 88.2 | 80.6 | > 100 | > 100 | 70.4 | > 100 | > 100
2 | COc1ccc(C2=NNC(=O)c3ccccc3N2c2nc(-c3cccs3)nc3ccc(Br)cc23)cc1 | > 100 | > 100 | > 100 | > 100 | 91.4 | > 100 |  | > 100 | > 100 | > 100
3 | N#Cc1c(C#N)c(-c2ccccc2)n(/N=C\c2ccccc2)c1N | 84.7 | 61.3 | 29.1 | 87.3 | 49.4 | 82.9 | 89.9 | 30.9 | > 100 | > 100
4 | CN(C)C=Nc1nncc2n[nH]nc12 | > 100 | > 100 | > 100 | > 100 | > 100 | > 100 |  | > 100 | > 100 | > 100
5 | COc1cc2c(cc1O)CC[C@@H]1C2CC[C@@]2(C)C1CC[C@@H]2O (some centres not stated) | > 100 | 7.63 | > 100 | > 100 | > 100 | 5.44 | 34.3 | 32.1 | > 100 | > 100
6 | COc1ccc(NC(=S)NNC(=O)c2cc(-c3ccccc3)nc3ccccc23)cc1 | > 100 | 75.5 | 59.7 | 38.9 | 55.1 | 9.79 | 24.6 | 59.2 | > 100 | 41.6
7 | C=CCn1c(=O)c2ccccc2[n+]2c(-c3cccc([N+](=O)[O-])c3)csc12 | > 100 | > 100 | 72.8 | > 100 | > 100 | 98.3 | > 100 | > 100 | > 100 | > 100
8 | CCOC(=O)CCC(C(=O)OCC)n1nnc2cc(Nc3c(C)[n+]([O-])c4ccc(Cl)cc4[n+]3[O-])ccc21 (configuration not stated) | > 100 | > 100 | > 100 | > 100 | > 100 | > 100 |  | > 100 | > 100 | > 100
9 | Cc1cccc2c1C(=O)[C@@](C)([C@]1(C)Nc3cccc(C)c3C1=O)N2 | > 100 | > 100 | > 100 | > 100 | > 100 | > 100 | > 100 | > 100 | > 100 | > 100
10 | N#Cc1c(-c2ccc(Cl)cc2)cc(-c2nc3ccccc3[nH]2)nc1N | 22.2 | 73.3 | 19.4 | 25.9 | 32.6 | 35.1 | 14.3 | 26.8 | 27.5 | 42.6
11 | Nc1ccc(-c2nc3ccccc3s2)cc1 | 48.7 | > 84 | 65.5 | 64.2 | 29.2 | 62.2 | > 100 | 70.3 | 61.5 | 41.1
12 | CC1(O)C(=O)OC2CC([C@]3(O)CCC4[C@@H]5C[C@H]6O[C@]67[C@@H](O)C=CC(=O)[C@]7(C)C5CC[C@@]43C)C1(C)C2 (some centres not stated) | > 31.6 | > 96.7 | 18.5 | 28.6 | 50.5 | 10.6 | > 100 | 31.6 | > 100 | 11.1
13 | Cc1nnc2sc(-c3ccc([N+](=O)[O-])o3)nn12 | 29.1 | > 100 | 62.7 | 24.2 | 27.9 | 59.6 | 25 | 13.5 | 35.3 | 23.2
14 | CSc1ccccc1P(CCP(c1ccccc1SC)c1ccccc1SC)c1ccccc1SC | > 100 | > 100 | > 100 | > 97.2 | > 100 | > 42.6 | > 100 | > 100 | > 100 | > 100
15 | CCCCCCCCCCCCCCCCNc1ccn(C2CC(OP(=O)(O)OCC3OC(n4cc(CC)c(=O)[nH]c4=O)CC3O)C(CO)O2)c(=O)n1 (configuration not stated) | > 100 | 67.1 | > 100 | 39.1 | 37.1 | 47.2 | 88 | 41.3 | 31.7 | 65.4
16 | OC(O)(C(F)(F)F)C(F)(F)F | > 100 | > 100 | > 100 | > 100 | > 100 | > 100 | > 100 | > 100 | > 100 | > 100
17 | CN(C)c1ccc(/C=C2\C[C@H]3[C@@H]4CCc5cc(O)ccc5[C@H]4CC[C@]3(C)C2=O)cc1 | > 100 | 30.5 | > 100 | > 100 | > 100 | > 100 | > 100 | > 100 | > 100 | > 100

Row | Structure (SMILES) | TGI (IGROV1 ovarian) [µM] | TGI (HS 578T breast) [µM] | TGI (T-47D breast) [µM] | TGI (SK-MEL-2 melanoma) [µM] | TGI (PC-3 prostate) [µM] | TGI (SR leukemia) [µM] | TGI (HCC-2998 colon) [µM] | TGI (MOLT-4 leukemia) [µM] | TGI (SNB-19 CNS) [µM] | TGI (SW-620 colon) [µM]
18 | O=C(NCc1cccnc1)C(=O)NCc1cccnc1 | > 100 | > 100 | > 100 | > 100 | > 100 | > 100 | > 100 | > 100 | > 100 | > 100
19 | Cn1c(=O)c2sc3cc4c(cc3c2c2ccccc21)sc1c(=O)n(C)c2ccccc2c14 | > 100 | > 100 | > 100 | > 100 | > 100 | > 100 | > 100 | > 100 |  | > 100
20 | COC(=O)C[C@H](CCSC)NC(=O)C[C@H](CCSC)NC(=O)C[C@H](CCSC)NC(=O)OC(C)(C)C | > 100 | > 100 | > 100 | 64.5 | > 100 | > 100 | > 100 | > 100 | 51.5 | > 100
21 | COc1ccc(C2NC(=O)Nc3c2c(=O)oc2c3ccc3ccccc32)cc1 (configuration not stated) | > 100 | > 100 | > 100 | 82.8 | > 100 | > 100 |  | > 100 | > 100 | > 100
22 | CCCCCCCCC[n+]1cccc(C2C(C(=O)OCC)=C(C)NC(C)=C2C(=O)OCC)c1 | 5.47 | 10.7 | 20.3 | 3.29 | 15.2 | > 25.3 | 21.1 | 19.2 | 11.2 | 30.5
23 | Cn1c(=O)c2[nH]c(CCC(=O)O)nc2n(C)c1=O | > 100 | > 100 | > 100 | > 100 | > 100 | > 100 | > 100 |  | > 100 | > 100
24 | COC(=O)C(C(=O)OC)C1CC(=O)c2c(Br)sc(Br)c21 (configuration not stated) | 29.3 | 85.7 | > 100 | 27.4 | 29 | 34.6 | 27.4 | 18.7 | 47.3 | 26.4
25 | O=C(O)CCCc1ccc2c(c1)CC1(C2)Cc2ccc(CCCC(=O)O)cc2C1 | > 100 | > 100 | > 100 | > 100 | > 100 | > 100 | > 100 | > 100 |  | 
26 | COC(=O)c1c(C#C[Si](C)(C)C)c(C#C[Si](C)(C)C)c(C#C[Si](C)(C)C)c(C#C[Si](C)(C)C)c1C(=O)OC | > 100 | > 100 | > 100 | > 100 | > 100 | > 100 | > 100 | > 100 | > 100 | > 100
27 | c1ccc2c(c1)c1c3n2-c2cc(on2)C3CCC1 (configuration not stated) | > 100 | > 100 | > 100 | > 100 | > 100 | > 100 | > 100 | > 100 | > 100 | > 100
28 | Cc1nn(-c2ccccn2)c2c1C(SC#N)=C(C=O)CC2 | 23.7 | > 100 | 20.3 | 30.5 | 33.8 | 34.3 | 24.2 | 6.95 | 47.8 | 59.3
29 | COc1cccc(C2CC(=O)c3cccn32)c1 (configuration not stated) | > 100 | > 100 | > 100 | > 100 | > 100 | > 100 | > 100 | > 100 | > 100 | > 100
30 | COC(=O)C1[C@H](C(=O)OC)C1(Br)CBr (some centres not stated) | > 100 | > 100 | > 100 | > 100 | > 100 | > 100 | > 100 | > 100 | > 100 | > 100
31 | O=C(NCCCCNCCCNC(=O)OCc1ccccc1)OCc1ccccc1 | 73.9 | 88.8 | 57.8 | 59.8 | > 100 | 92.3 | 38.7 | 73.6 | > 100 | > 100
32 | Cc1ccc(S(=O)(=O)N2CCN(CCO)CCN(S(=O)(=O)c3ccc(C)cc3)CCN(CCO)CC2)cc1 | > 100 | 93.4 | 36.2 | 35.2 | > 100 | 27.8 | 29.7 | 57.1 | > 100 | > 100
33 | O=S(=O)(O)c1ccc(Nc2ccnc3cc(Cl)ccc23)cc1 | > 100 | > 100 | > 100 | > 100 | > 100 | > 100 | > 100 | > 100 | > 100 | > 100
